Patent EP0048954A2, “Beta-lactam compounds, process for the preparation thereof and intermediate products for the preparation thereof” (SAGAMI CHEMICAL RESEARCH CENTER, priority 1980, dated 1982)
≈ marks a conversion by molar mass, not a printed value. Where a name gives a salt, the structure may show the parent alone. Read-outs that look alike come from different tables or passages of the source.

Tests used:
Assay in all cases: Antibacterial activity, minimum inhibition concentration (method of The Chemotherapy Association, Japan)
Type in all cases: cell-based
Proteus rettgeri NIH-96 = settings: Providencia rettgeri
From the text: (§1) The abbreviations A to P will be used in the following Tables 2 to 8.
(§2) Test results are shown in terms of the minimum inhibition concentration (µg/mℓ.) in the following Tables 2 to 8.

Proteus vulgaris OX-19 = settings: Proteus vulgaris
From the text: as §1, §2

[1] = tested on: Bacillus subtilis ATCC 6633; settings: Bacillus subtilis
Experimental: (§3) Antibacterial activities of the compounds according to this invention, which had been prepared in the preceding Examples, were measured according to the method prescribed by The Committee of Amendment of "The method for measurement of the minimum inhibition concentration", The Chemotherapy Association, Japan (See Chemotherapy, Vol. 22, No. 6, pp. 1126 - 1128 (1974) and Vol. 29, No. 1, pp. 76 - 79 (1981)).
as §1, §2

[2] = tested on: Citrobactor freundii NIH-10018 -68; settings: read-out: minimum inhibition concentration
Experimental: as §3, §1, §2

[3] = tested on: Enterobactor cloacae NCTC-9394; settings: read-out: minimum inhibition concentration
Experimental: as §3, §1, §2

Escherichia coli NIHJC-2 = settings: Escherichia coli
Experimental: as §3, §1, §2

Escherichia coli NIHJ = settings: Escherichia coli, read-out: minimum inhibition concentration
Experimental: as §3, §1, §2

Klebsiella pneumoniae = settings: Klebsiella pneumoniae
Experimental: as §3, §1, §2

[4] = tested on: Proteus mirabillis B-30-2 IFO-3849
Experimental: as §3, §1, §2

Proteus morgani Kono = settings: read-out: minimum inhibition concentration
Experimental: as §3, §1, §2

[5] = tested on: Pseudomonas aeruginosa NCTC-10490; settings: Pseudomonas aeruginosa
Experimental: as §3, §1, §2

[6] = tested on: Salmonella typhimurium 3173; settings: Salmonella enterica, TYPHIMURIUM
Experimental: as §3, §1, §2

Serratia marcescens 1023 = tested on: Serratia marcescens 1023
Experimental: as §3, §1, §2

[7] = tested on: Serratia marcescens IFO-3736; settings: Serratia marcescens
Experimental: as §3, §1, §2

[8] = tested on: Staphylococcus aureus 6538-P
Experimental: as §3, §1, §2

[9] = NIH96, read-out: minimum inhibition concentration, strain I: Proteus rettgeri NIH-96
[10] = OX19, read-out: minimum inhibition concentration, strain H: Proteus vulgaris OX-19
[11] = ATCC6633, read-out: minimum inhibition concentration, strain B: Bacillus subtilis ATCC 6633
[12] = NIHJC2, read-out: minimum inhibition concentration
[13] = read-out: minimum inhibition concentration, strain C: Klebsiella pneumoniae
[14] = read-out: minimum inhibition concentration, strain G: Proteus mirabillis B-30-2 IFO-3849
[15] = NCTC10490, read-out: minimum inhibition concentration
[16] = read-out: minimum inhibition concentration, strain D: Salmonella typhimurium 3173
[17] = Serratia marcescens, 1023, read-out: minimum inhibition concentration, strain E: Serratia marcescens 1023
[18] = IFO3736, read-out: minimum inhibition concentration
[19] = Staphylococcus aureus, 6538P, read-out: minimum inhibition concentration, strain A: Staphylococcus aureus 6538-P
[20] = NIH96, strain I: Proteus rettgeri NIH-96, read-out: minimum inhibition concentration
[21] = OX19, strain H: Proteus vulgaris OX-19, read-out: minimum inhibition concentration
[22] = ATCC6633, strain B: Bacillus subtilis ATCC 6633, read-out: minimum inhibition concentration
[23] = strain O: Citrobactor freundii NIH-10018 -68
[24] = strain N: Enterobactor cloacae NCTC-9394
[25] = NIHJC2, strain L: Escherichia coli NIHJC-2, read-out: minimum inhibition concentration
[26] = strain K: Escherichia coli NIHJ
[27] = strain C: Klebsiella pneumoniae, read-out: minimum inhibition concentration
[28] = strain G: Proteus mirabillis B-30-2 IFO-3849, read-out: minimum inhibition concentration
[29] = NCTC10490, strain M: Pseudomonas aeruginosa NCTC-10490, read-out: minimum inhibition concentration
[30] = strain D: Salmonella typhimurium 3173, read-out: minimum inhibition concentration
[31] = Serratia marcescens, 1023, strain E: Serratia marcescens 1023, read-out: minimum inhibition concentration
[32] = IFO3736, strain F: Serratia marcescens IFO-3736, read-out: minimum inhibition concentration
[33] = strain A: Staphylococcus aureus 6538-P, read-out: minimum inhibition concentration

Row | Structure (SMILES) | MIC (Proteus rettgeri NIH-96; [20]) [µg/mL] | MIC (Proteus vulgaris OX-19; [21]) [µg/mL] | MIC [1, 22] [µg/mL] | MIC [2, 23] [µg/mL] | MIC [3, 24] [µg/mL] | MIC (Escherichia coli NIHJC-2; [25]) [µg/mL] | MIC (Escherichia coli NIHJ; [26]) [µg/mL] | MIC (Klebsiella pneumoniae; [27]) [µg/mL] | MIC [4, 28] [µg/mL] | MIC (Proteus morgani Kono; strain J: Proteus morgani Kono) [µg/mL] | MIC [5, 29] [µg/mL] | MIC [6, 30] [µg/mL] | MIC (Serratia marcescens 1023; [31]) [µg/mL] | MIC [7, 32] [µg/mL] | MIC [8, 33] [µg/mL] | other results
1 | CC(=O)OCC1=C(C(=O)[O-])N2C(=O)C(NC(=O)C(=CCl)c3csc(N)n3)[C@H]2SC1.[Na+] (stereo partly drawn) [Compound 20, 7-[2-chloromethylene-2-(2-aminothiazol-4-yl)acetamido]-3-acetoxymethyl-3-cephem-4-carboxylic acid sodium salt] | – | – | – | – | – | – | – | – | – | – | – | – | – | – | – | MIC (Proteus rettgeri NIH-96; [9]): 0.025 µg/mL; MIC (Proteus vulgaris OX-19; [10]): 0.2 µg/mL; MIC [1, 11]: 6.25 µg/mL; MIC [2]: 1.56 µg/mL; MIC [3]: 0.78 µg/mL; MIC (Escherichia coli NIHJC-2; [12]): 3.12 µg/mL; MIC (Escherichia coli NIHJ): 0.05 µg/mL; MIC (Klebsiella pneumoniae; [13]): 1.56 µg/mL; MIC [4, 14]: 1.56 µg/mL; MIC (Proteus morgani Kono): 1.56 µg/mL; MIC [5, 15]: 6.25 µg/mL; MIC [6, 16]: 3.12 µg/mL; MIC (Serratia marcescens 1023; [17]): 12.5 µg/mL; MIC [7, 18]: 6.25 µg/mL; MIC [8, 19]: 1.56 µg/mL
2 | CC(=O)OCC1=C(C(=O)O)N2C(=O)C(NC(=O)C(=C(Cl)Cl)c3cccn3C)[C@H]2SC1 (stereo partly drawn) [Compound 36, 7-[2-dichloromethylene-2-(1-methyl-2-pyrrolyl)acetamido]-3-acetoxymethyl-3-cephem-4-carboxylic acid] | 1.56 (≈ 3.29 µM) | 50 (≈ 105 µM) | 12.5 (≈ 26.4 µM) | > 100 | > 100 | > 100 | 50 (≈ 105 µM) | > 100 | > 100 | > 100 | > 100 | > 100 | 100 (≈ 211 µM) | > 100 | 0.78 (≈ 1.64 µM) | –
3 | CC1(C)S[C@@H]2C(NC(=O)C(=C(Cl)Cl)c3cccs3)C(=O)N2[C@H]1C(=O)O (stereo partly drawn) [Compound 37, 6-[2-dichloromethylene-2-(2-thienyl)acetamido]-penicillanic acid] | 0.25 (≈ 0.593 µM) | 50 (≈ 119 µM) | 1.56 (≈ 3.7 µM) | > 100 | 100 (≈ 237 µM) | > 100 | 0.78 (≈ 1.85 µM) | > 100 | > 100 | > 100 | 6.25 (≈ 14.8 µM) | > 100 | 0.05 (≈ 0.119 µM) | > 100 | 0.1 (≈ 0.237 µM) | –
4 | COc1ccc(C(C(=O)NC2C(=O)N3C(C(=O)O)=C(COC(C)=O)CS[C@H]23)=C(Cl)Cl)cc1 (stereo partly drawn) [Compound 27, 7-[2-dichloromethylene-2-(4-methoxyphenyl)acetamido]-3-acetoxymethyl-3-cephem-4-carboxylic acid] | 3.12 (≈ 6.23 µM) | > 100 | 3.12 (≈ 6.23 µM) | > 100 | > 100 | > 100 | 100 (≈ 199 µM) | > 100 | > 100 | > 100 | 100 (≈ 199 µM) | > 100 | 6.25 (≈ 12.5 µM) | > 100 | > 100 | –
5 | Nc1nc(C(=CCl)C(=O)NC2C(=O)N3C(C(=O)[O-])=C(C[n+]4ccccc4)CSC23)cs1 (stereo not drawn) [Compound 24, 7-[2-chloromethylene-2-(2-aminothiazol-4-yl)acetamido]-3-pyridiniummethyl-3-cephem-4-carboxylic acid betaine] | 0.78 (≈ 1.63 µM) | 3.12 (≈ 6.54 µM) | 25 (≈ 52.3 µM) | 25 (≈ 52.3 µM) | 12.5 (≈ 26.2 µM) | 25 (≈ 52.3 µM) | 1.56 (≈ 3.26 µM) | 25 (≈ 52.3 µM) | 12.5 (≈ 26.2 µM) | 25 (≈ 52.3 µM) | > 100 | 25 (≈ 52.3 µM) | 25 (≈ 52.3 µM) | 50 (≈ 105 µM) | 6.25 (≈ 13.1 µM) | –
6 | CC(=O)OCC1=C(C(=O)O)N2C(=O)C(NC(=O)C(=C(Cl)Cl)c3csc(N)n3)[C@H]2SC1 (stereo partly drawn) [5-(2), 7-[2-dichloromethylene-2-(2-aminothiazol-4-yl)acetamido]-3-acetoxymethyl-3-cephem-4-carboxylic acid] | < 0.025 | 0.2 (≈ 0.405 µM) | 12.5 (≈ 25.3 µM) | 6.25 (≈ 12.7 µM) | 1.56 (≈ 3.16 µM) | 12.5 (≈ 25.3 µM) | 0.1 (≈ 0.203 µM) | 6.25 (≈ 12.7 µM) | 12.5 (≈ 25.3 µM) | 25 (≈ 50.7 µM) | 6.25 (≈ 12.7 µM) | 6.25 (≈ 12.7 µM) | 12.5 (≈ 25.3 µM) | 50 (≈ 101 µM) | 1.56 (≈ 3.16 µM) | –
7 | CC(=O)OCC1=C(C(=O)O)N2C(=O)C(NC(=O)C(=C(Cl)Cl)c3ccco3)[C@H]2SC1 (stereo partly drawn) [Compound 33, 7-[2-dichloromethylene-2-(2-furyl)acetamido]-3-acetoxymethyl-3-cephem-4-carboxylic acid] | 0.1 (≈ 0.217 µM) | 6.25 (≈ 13.5 µM) | 6.25 (≈ 13.5 µM) | 50 (≈ 108 µM) | 25 (≈ 54.2 µM) | 100 (≈ 217 µM) | 1.56 (≈ 3.38 µM) | 100 (≈ 217 µM) | 100 (≈ 217 µM) | > 100 | 12.5 (≈ 27.1 µM) | 50 (≈ 108 µM) | 25 (≈ 54.2 µM) | 100 (≈ 217 µM) | 0.39 (≈ 0.845 µM) | –
8 | CC1=C(C(=O)O)N2C(=O)C(NC(=O)C(=CCl)c3csc(N)n3)C2SC1 (single isomer, unassigned) [Compound 23, 7-[2-chlromethylene-2-(2-aminothiazol-4-yl)acetamido]-desacetoxycephelosporanic acid sodium salt] | 0.39 | 12.5 | 50 | 100 | 12.5 | 100 | 6.25 | 50 | 25 | > 100 | > 100 | 50 | 100 | > 100 | 3.12 | –
9 | CC(=O)OCC1=C(C(=O)O)N2C(=O)C(NC(=O)C(=C(Cl)Cl)c3cccc(O)c3)[C@H]2SC1 (stereo partly drawn) [Compound 3, 7-[2-dichloromethylene-2-(3-hydroxyphenyl)acetamido]-3-acetoxymethyl-3-cephem-4-carboxylic acid] | 0.1 (≈ 0.205 µM) | 0.76 (≈ 1.56 µM) | 3.12 (≈ 6.41 µM) | 25 (≈ 51.3 µM) | 12.5 (≈ 25.7 µM) | 50 (≈ 103 µM) | 0.2 (≈ 0.41 µM) | 50 (≈ 103 µM) | 50 (≈ 103 µM) | 100 (≈ 205 µM) | 6.25 (≈ 12.8 µM) | 12.5 (≈ 25.7 µM) | 0.25 (≈ 0.513 µM) | 50 (≈ 103 µM) | 0.39 (≈ 0.8 µM) | –
10 | CSc1nnc(SCC2=C(C(=O)[O-])N3C(=O)C(NC(=O)C(=CCl)c4csc(N)n4)[C@H]3SC2)s1.[Na+] (stereo partly drawn) [Compound 21, 7-[2-chloromethylene-2-(2-aminothiazol-4-yl)acetamido]-3-(2-methylthio-1,3,4-thiadiazol-5-yl)thiomethyl-3-cephem-4-carboxylic acid sodium salt] | – | – | – | – | – | – | – | – | – | – | – | – | – | – | – | MIC (Proteus rettgeri NIH-96; [9]): < 0.00625 µg/mL; MIC (Proteus vulgaris OX-19; [10]): 0.025 µg/mL; MIC [1, 11]: 3.12 µg/mL; MIC [2]: 3.12 µg/mL; MIC [3]: 0.39 µg/mL; MIC (Escherichia coli NIHJC-2; [12]): 1.56 µg/mL; MIC (Escherichia coli NIHJ): < 0.00625 µg/mL; MIC (Klebsiella pneumoniae; [13]): 3.12 µg/mL; MIC [4, 14]: 1.56 µg/mL; MIC (Proteus morgani Kono): 0.78 µg/mL; MIC [5, 15]: 6.25 µg/mL; MIC [6, 16]: 3.12 µg/mL; MIC (Serratia marcescens 1023; [17]): 3.12 µg/mL; MIC [7, 18]: 3.12 µg/mL; MIC [8, 19]: 0.2 µg/mL
11 | CC(=O)OCC1=C(C(=O)O)N2C(=O)C(NC(=O)C(=C(Cl)Cl)c3ccc(Br)s3)[C@H]2SC1 (stereo partly drawn) [Compound 32, 7-[2-dichloromethylene-2-(5-bromo-2-thienyl)acetamido]-3-acetoxymethyl-3-cephem-4-carboxylic acid] | 0.78 (≈ 1.4 µM) | 100 (≈ 180 µM) | 6.25 (≈ 11.2 µM) | > 100 | > 100 | > 100 | 25 (≈ 44.9 µM) | > 100 | > 100 | > 100 | 50 (≈ 89.9 µM) | > 100 | 12.5 (≈ 22.5 µM) | > 100 | 0.1 (≈ 0.18 µM) | –
